Experimental data reported in US20180338922A1, “FIXED DOSE FORMULATIONS” (Esperion Therapeutics, Inc., priority 2017, published 2018).
“Also recorded” adds a separate entry of the source. Like-named read-outs stand apart in the source and are kept apart here. Blank lines part the entries; values can stand above or below the compound they belong to.

Key:
[1] = Forced degradation of bempedoic acid; format: physicochemical
Description: Forced degradation of bempedoic acid was carried out to study the impurity profile, degradation pathway, and to facilitate the development of a stability-indicating method. In addition, knowledge obtained from the forced degradation studies was used during formulation and process design and development to prevent impurities from being generated. The specified stress conditions were intended to achieve 5-20% degradation. The stressed samples were compared to the unstressed sample (control).

[2] = Drug-drug compatibility study (HPLC, binary mixture 1:18 ezetimibe:bempedoic acid, solid state); format: physicochemical; conditions: for Assay (Bempedoic Acid): in % (unit assumed)
Description: The fixed dose combination product under development is a novel combination of two drug substances and therefore determination of compatibility of the actives with each other was considered to be critical. The compatibility of the actives was assessed through HPLC analysis of binary mixtures of the drug substances at a ratio 1:18 (ezetimibe:bempedoic acid) in the solid state. Samples were stored at 60° C. and 40° C./75% RH in both open and closed containers for 2 weeks and 4 weeks respectively. Degradation products were evaluated for open (stressed) samples of accelerated condition (40° C./75% RH) and 60° C. Assay for the samples was also carried out.

[3] = cited from earlier work
[4] = Flowability of the APIs (compressibility index, Hausner's ratio); format: physicochemical; conditions: drug substance
[5] = Log partition coefficient (log p); format: physicochemical
[6] = pKa by potentiometric titration; format: physicochemical; conditions: determined by potentiometric titration
[7] = Multimedia dissolution of Bempedoic acid tablets (USP Apparatus-II, 50 rpm, 900 mL); format: physicochemical; conditions: QC medium (phosphate buffer, pH 6.8); in 20 minutes
Description: Dissolution characterization was performed in accordance with the dissolution method detailed in IND #106,654. The dissolution conditions were 900 mL phosphate buffer, pH 6.8, using Apparatus-II at 50 rpm.

[8] = QC dissolution of ezetimibe component (0.45% SLS in 0.05 M acetate buffer pH 4.5, Apparatus-II, 50 rpm, 500 mL); format: physicochemical; conditions: QC dissolution medium, within 15 minutes
Description: Drug release profiles for both actives were estimated using common chromatographic conditions with different injection volumes.
The goal of Formulation Development Study #2 was to optimize the concentration of binder used for the granulation of ezetimibe. Wet granulation was used for the preparation of ezetimibe granules. Binder solution, povidone with SLS, and ezetimibe were used for the granulation of dry-mix powder blend. One trial with a higher concentration of povidone (3 mg/tablet) and another with a lower concentration (1 mg/tablet) were performed to observe the impact of binder concentration on dissolution. Ezetimibe granules were mixed with Bempedoic acid granules separately and compressed into a monolayer tablet for both trials.
Dissolution Profile of FDC test product (ezetimibe component) in QC media is given in Table 52, Table 53, FIG. 15, and FIG. 16.

[9] = Forced degradation of ezetimibe; format: physicochemical
[10] = Drug substance attributes (solubility, permeability, BCS class, hygroscopicity); format: physicochemical
[11] = 18.48 mg of solid in Sun cabinet 765 W/m2 at 35° C. for 24 hrs
[12] = 21.41 mg of solid + Heating at 80° C. for 24 hrs
[13] = 5.0 mL stock solution + Heating at 80° C. for 30 min
[14] = 5.0 mL stock solution in Sun cabinet 765 W/m2 at 35° C. for 15 hrs

- Assay ([1]; Non stressed bempedoic acid): 99.0%
- Assay ([1]; Photo, solid state): 99.2%
- Assay ([1]; Thermal, solid state 105° C.): 95.8%
- Assay ([1]; Thermal, solution 105 C): 97.7%
- stability in the stress test study ([1]; all studied stress conditions): stable at all studied conditions
- Assay ([1]; exposed to H2O2): 100.4%
- Assay ([1]; exposed to HCl): 98.7%
- Assay ([1]; exposed to NaOH, differs from expected ~100% due to non-quantitative neutralization prior to injection (footnote 2)): 117.3(2) %
- Assay (Bempedoic Acid) ([2]; 2W 60°): 100.2
- Assay (Bempedoic Acid) ([2]; 4W 40° C./75% RH Open): 103.7
- unspecified impurity ([2]; Initial, 2W 60°, 4W 40° C./75%): No unspecified impurity generated
- Assay (Bempedoic Acid) ([2]; Initial): 101.7
- Hausner's ratio [4]: 1.48
- compressibility index [4]: 32.6%
- logP ([5]; octanol/pH 3.5 buffer, pH 3.5): 4.38
- logP ([5]; octanol/water): 4.33
- pKa [6]: 4.88
- pKa ([6]; second value): 5.6
- drug released [7]: more than 85%
Compound: CC(C)(CCCCCC(O)CCCCCC(C)(C)C(=O)O)C(=O)O [Bempedoic acid, 8-hydroxy-2,2,14,14-tetramethylpentadecanedioic acid]
- aqueous solubility [3]: pH dependent
- aqueous solubility ([3]; listed as Bempedoic acid (ETC-1002)): poorly soluble in water

- drug release (ezetimibe) [8]: more than 85%
- Assay (EZT) ([2]; 2W 60°): 97.6%
- EZT 21 (Keto impurity) ([2]; 2W 60°): 0.04
- EZT cyclic ether ([2]; 2W 60°): 0.12%
- SMUI ([2]; 2W 60°): 0.17%
- Total impurities ([2]; 2W 60°): 0.33%
- Assay (EZT) ([2]; 4W 40° C./75% RH Open): 99.5%
- EZT 21 (Keto impurity) ([2]; 4W 40° C./75% RH Open): 0.38
- EZT cyclic ether ([2]; 4W 40° C./75% RH Open): 0.9%
- SMUI ([2]; 4W 40° C./75% RH Open): 0.19%
- Total impurities ([2]; 4W 40° C./75% RH Open): 2.34%
- Assay (EZT) ([2]; Initial): 99.3%
- EZT 21 (Keto impurity) ([2]; Initial): 0.03
- SMUI ([2]; Initial): 0.03%
- Total impurities ([2]; Initial): 0.06%
- Hausner's ratio [4]: 1.42
- compressibility index [4]: 29.60%
- % Degradation, Total (unspecified and specified) [9, 11]: 0.22%
- Assay [9, 11]: 98.0%
- % Degradation, Total (unspecified and specified) [9, 12]: 0.14%
- Assay [9, 12]: 96.3%
- Assay ([9]; 5.0 mL stock solution + 0.1 mL 1N NaOH at RT for 30 min): 83.1%
- Assay ([9]; 5.0 mL stock solution + 1 mL 1N HCl at RT for 24 hrs): 97.9%
- Assay ([9]; 5.0 mL stock solution + 1 mL H2O2 30% at RT for 24 hrs): 97.0%
- % Degradation, Total (unspecified and specified) [9, 13]: 5.67%
- Assay [9, 13]: 93.1%
- % Degradation, Total (unspecified and specified) [9, 14]: 1.57%
- Assay [9, 14]: 95.0%
- % Degradation, Total (unspecified and specified) ([9]; Non stressed ezetimibe): 0.12%
- Assay ([9]; Non stressed ezetimibe): 100.0%
- stability classification from forced degradation ([9]; exposure to alkali (NaOH) and peroxide (H2O2)): sensitive to alkali and peroxide
- stability in the solid form ([9]; heat and photo irradiation, solid form): stable to heat and photo irradiation
- logP ([5]; n-octanol/pH 7 aqueous phase, n-octanol: pH 7): 4.51
- logP ([5]; pH 1, n-octanol: 0.1N HCl): 4.52
- pKa [6]: 9.75
- Solubility [10]: low solubility
Compound: O=C1[C@H](CC[C@H](O)c2ccc(F)cc2)[C@@H](c2ccc(O)cc2)N1c1ccc(F)cc1 [Ezetimibe, (3R,4S)-1-(4-fluorophenyl)-3-[(3S)-3-(4-fluorophenyl)-3-hydroxypropyl]-4-(4-hydroxyphenyl) azetidin-2-one]
- aqueous solubility [3]: insoluble in aqueous media at all pH; also recorded: poorly soluble in water
- BCS class [10]: Ezetimibe is BCS class II compounds having low
